Measurements published in patent publication US6391916B1, “Enediyne derivatives” (The Hong Kong University of Science and Technology, priority 2000, dated 2002).
Marks after values point to notes of the source that are not given here.

Experiments:
[1] = tested on: φX174 RFI (Form I) double stranded DNA; assay: DNA cleavage of supercoiled φX174 RFI (Form I) DNA, agarose gel electrophoresis and densitometry; format: biochemical; conditions: FIG. 1; 100 μM, pH range 7.0-8.5, 72 hours
[2] = tested on: φX174 RFI (Form I) double stranded DNA; assay: as above; format: biochemical; conditions: for net DNA cut (%) / DNA cleavage potency relative to Compound A: 37° C.; for net DNA cut (%): TEA buffer pH 8.5, 20% DMSO; for DNA cleavage potency relative to Compound A: 72 hours
Experimental: DNA cleavage studies on the compounds of this invention were performed by using supercoiled, covalently closed, circular φX174 RFI (Form I) double stranded DNA. Thus, a 54.3 μM/bp (micromolar per base pair) solution of φX174 RFI DNA and a compound in the indicated concentration in TEA buffer (pH 8.5) containing 20% DMSO was incubated at 37° C. for 48-72 hours and analyzed by 1% agarose gel electrophoresis to separate the various forms of DNA. DNA cleavage was indicated by the formation of nicked relaxed circular DNA (Form II) or linearized DNA (Form III), which was visualized using ethidium bromide stain. A photo picture of the gel was taken over a 365 nanometer ultra-violet light transilluminator and the relative densities of DNA bands were quantitated by a GS-700 imaging densitometer (BIO-RAD). The percentage of net DNA cleavage was calculated by the following equation:
Net DNA Cleavage (%)={[(Form II)s+2×(Form III)s]/[(Form I)s+(Form II)s+2×(Form III)s]×100}−{(Form II)c/[(Form I)c+(Form II)c]×100}
wherein the subscripts “s” and “c” refer to as the samples and controls, respectively.

[3] = tested on: P388 mice T cell leukemia cells; assay: Cytotoxicity by MTT assay in P388 cells; format: cell-based, mouse
Experimental: Cytotoxicity was assessed in P388 mice T cell leukemia cells by MTT [3-(4,5-dimethylthiazol-2-yl)-2,5-diphenyl-2H-tetrazolium bromide] assay. Cell suspension (1×10^5 cells/mL) was plated in 96 well microtiter plates at 50 μL/well and it was followed by 50 μL/well of the test compound in serially diluted concentrations. The cells were incubated at 37° C. in a humidified atmosphere containing 5% CO2 in air for 72 hours at which time the tetrazolium dye, MTT, was added. After another 3 hours incubation, 100 μL/well of acidified 2-propanol (0.04 N HCl) was added. The optical densities of the plates were measured with a microplate reader (BIO-RAD) at 570 nm. The greater the absorbance the greater the number of live cells. The results are expressed as an IC50 which is the drug concentration required to inhibit cell proliferation to 50% of that of untreated control cells. The detailed procedure is found in Mosman, J. Immunol. Methods 65:55 (1983); Ferrari et al., Immunol. Methods 131:165 (1990).

[4] = at 37° C.; cited from earlier work
[5] = P388 mouse leukemia cells, 37° C., 72 h, 5% CO2

## OC1C#CCCCCC#C/C1=C\c1ccccc1 (stereo not drawn) [Compound 6, (E)-4-(Phenylmethylidene)cyclodeca-1,5-diyn-3-ol]
[1]
  DNA cleavage activity (in words): less potent compared to the corresponding acetate, Compound 29

## CC(=O)OC1C#CCCCCC#C/C1=C\c1ccccc1 (stereo not drawn) [Compound 29, (E)-3-Acetoxy-4-(phenylmethylidene)cyclodeca-1,5-diyne]
[2]; At 20 μM
  net DNA cut (%): 19.3[b] %
[3]; [5]
  IC50: 48 µM
[1]
  DNA cleavage activity (in words): slightly higher DNA cleavage activity in the basic pHs

## COc1ccc(/C=C2\C#CCCCCC#CC2OC(C)=O)cc1 (stereo not drawn) [Compound 30a, (E)-3-Acetoxy-4-[(4′-methoxyphenyl)methylidene]cyclodeca-1,5-diyne]
[2]; At 20 μM
  net DNA cut (%): 86.4[b] %
[3]; [5]
  IC50: 15 µM

## CC(=O)OC1C#CCCCCC#C/C1=C\c1cccc2ccccc12 (stereo not drawn) [Compound 30b, (E)-3-Acetoxy-4-(1′-naphthylmethylidene)cyclodeca-1,5-diyne]
[2]; At 5 μM
  net DNA cut (%): 33.5[d] %
[2]; At 20 μM
  net DNA cut (%): 77.7[b] %
[3]; Mus musculus, P388 cells
  IC50: 2.4 µM
[3]; [5]
  IC50: 2.4 µM

## CC(=O)OC1C#CCCCCC#C/C1=C\c1ccc2ccccc2c1 (stereo not drawn) [Compound 30c, (E)-3-Acetoxy-4-(2′-naphthylmethylidene)cyclodeca-1,5-diyne]
[2]; At 20 μM
  net DNA cut (%): 82.3[b] %
[3]; Mus musculus, P388 cells
  IC50: 2.8 µM
[3]; [5]
  IC50: 2.8 µM

## COCC(=O)OC1C#CCCCCC#C/C1=C\c1ccccc1 (stereo not drawn) [Compound 31, (E)-3-Methoxyacetoxy4-(phenylmethylidene)cyclodeca-1,5-diyne]
[2]; At 20 μM
  net DNA cut (%): 13.2[b] %
[2]; FIG. 2, pH 8.5
  DNA cleavage potency relative to Compound A: ca. 100 fold
[2]; FIG. 2, concentration range 5-100 μM, pH 8.5
  DNA cleavage activity (in words): same level of DNA cleavage activity as enediyne, Compound 42
[3]; [5]
  IC50: 23 µM

## COCC(=O)OC1C#CCCCCC#C/C1=C\c1cccc2ccccc12 (stereo not drawn) [Compound 32b, (E)-3-Methoxyacetoxy-4-(1′-naphthylmethylidene)cyclodeca-1,5-diyne]
[2]; At 5 μM
  net DNA cut (%): 38.8[d] %
[2]; At 20 μM
  net DNA cut (%): 87.4[b] %
[3]; [5]
  IC50: 12 µM

## COCC(=O)OC1C#CCCCCC#C/C1=C\c1ccc2ccccc2c1 (stereo not drawn) [Compound 32c, (E)-3-Methoxyacetoxy-4-(2′-naphthylmethylidene)cyclodeca-1,5-diyne]
[2]; At 20 μM
  net DNA cut (%): 71.9[b] %
[3]; [5]
  IC50: 28 µM

## COc1ccc(C(O)/C2=C/C#CCCCCC#C2)cc1 (stereo not drawn) [Compound 33, 3-[1′-Hydroxy-1′-(4″-methoxyphenyl)methyl]cyclodeca-3-en-1,5-diyne]
[2]; FIG. 4, 20 μM, pH 8.5
  DNA cleavage activity (in words): reduced DNA cleavage activity

## CC(=O)OC1C#CCCCCC#C/C1=C\c1ccccc1CO[Si](C)(C)C(C)(C)C (stereo not drawn) [Compound 34a, (E)-3-Acetoxy-4-[2′-((((tert-butyldimethyl)silyloxy)methyl)phenyl)methylidene]cyclodeca-1,5-diyne]
[2]; At 100 μM
  net DNA cut (%): 10.7[c] %
[3]; [5]
  IC50: > 50 µM

## COCC(=O)OC1C#CCCCCC#C/C1=C\c1ccccc1CO[Si](C)(C)C(C)(C)C (stereo not drawn) [Compound 34b, (E)-4-[2′-((((tert-butyldimethyl)silyloxy)methyl)phenyl)methylidene]-3-(methoxyacetoxy)cyclodeca-1,5-diyne]
[2]; At 100 μM
  net DNA cut (%): 14.4[c] %
[3]; [5]
  IC50: > 50 µM

## CC(=O)OC1C#CCCCCC#C/C1=C\c1ccccc1CO (stereo not drawn) [Compound 35a, (E)-3-Acetoxy-4-[2′-((hydroxymethyl)phenyl)methylidene]cyclodeca-1,5-diyne]
[2]; At 100 μM
  net DNA cut (%): 23.5[c] %
[3]; [5]
  IC50: 21 µM

## COCC(=O)OC1C#CCCCCC#C/C1=C\c1ccccc1CO (stereo not drawn) [Compound 35b]
[2]; At 100 μM
  net DNA cut (%): 17.6[c] %
[3]; [5]
  IC50: 16 µM

## CCC(=O)OC1C#CCCCCC#C/C1=C\c1cccc2ccccc12 (stereo not drawn) [Compound 36, (E)-4-(1′-Naphthylmethylidene)-3-(propanoyloxy)cyclodeca-1,5-diyne]
[3]; [5]
  IC50: 10 µM

## CCCCCCCC(=O)OC1C#CCCCCC#C/C1=C\c1cccc2ccccc12 (stereo not drawn) [Compound 37, (E)-4-(1′-Naphthylmethylidene)-3-(octanoyloxy)cyclodeca-1,5-diyne]
[2]; At 5 μM
  net DNA cut (%): 4.67[d] %
[2]; FIG. 5, 5 μM, pH 8.5
  DNA cleavage activity relative to Compound 32b: ca. one eighth
[3]; [5]
  IC50: 13 µM

## O=C(COCc1ccccc1)OC1C#CCCCCC#C/C1=C\c1cccc2ccccc12 (stereo not drawn) [Compound 38, (E)-3-(Benzyloxy)acetoxy4-(1′-naphthylmethylidene)cyclodeca-1,5-diyne]
[2]; At 5 μM
  net DNA cut (%): 38.6[d] %
[3]; [5]
  IC50: 6.7 µM

## COc1ccc(COCC(=O)OC2C#CCCCCC#C/C2=C\c2cccc3ccccc23)cc1 (stereo not drawn) [Compound 39, (E)-3-[(4′-Methoxybenzyl)oxy]acetoxy-4-(1″-naphthylmethylidene)cyclodeca-1,5-diyne]
[2]; At 5 μM
  net DNA cut (%): 26.1[d] %
[3]; [5]
  IC50: 97 µM

## COc1ccc(OC)c(C(=O)OC2C#CCCCCC#C/C2=C\c2cccc3ccccc23)c1 (stereo not drawn) [Compound 40, (E)4-(1′-Naphthylmethylidene)-3-((2″,5″-dimethoxybenzoyl)oxy)cyclodeca-1,5-diyne]
[2]; At 5 μM
  net DNA cut (%): 35.6[d] %
[2]; FIG. 5, 5 μM, pH 8.5
  DNA cleavage activity (in words): little effect as compared to the acetate in Compound 30b
[3]; [5]
  IC50: 17 µM

## O=C(OC1C#CCCCCC#C/C1=C\c1cccc2ccccc12)c1cccc2cc3ccccc3cc12 (stereo not drawn) [Compound 41, (E)-3-[(1′-Anthracenecarbonyl)oxy]-4-(1″-naphthylmethylidene)cyclodeca-1,5-diyne]
[2]; At 5 μM
  net DNA cut (%): 10.6[d] %
[2]; FIG. 5, 5 μM, pH 8.5
  DNA cleavage activity (in words): reduced the DNA cleaving potency
[3]; [5]
  IC50: 11 µM

## COCC(=O)OC(/C1=C/C#CCCCCC#C1)c1ccccc1 (stereo not drawn) [Compound 42, 3-[(1′-Methoxyacetoxy-1′-phenyl)methyl]cyclodeca-3-en-1,5-diyne]
[2]; At 20 μM
  net DNA cut (%): 12.9[b] %
[2]; FIG. 2, pH 8.5
  DNA cleavage potency relative to Compound A: ca. 100 fold
[3]; [5]
  IC50: 7.7 µM

## COCC(=O)OC(/C1=C/C#CCCCCC#C1)c1cccc2ccccc12 (stereo not drawn) [Compound 43a, 3-[(1′-Methoxyacetoxy-1′-(1″-naphthyl))methyl]cyclodeca-3-en-1,5-diyne]
[2]; At 20 μM
  net DNA cut (%): 67.4[b] %
[3]; [5]
  IC50: 3.8 µM

## COCC(=O)OC(/C1=C/C#CCCCCC#C1)c1ccc2ccccc2c1 (stereo not drawn) [Compound 43b, 3-[(1′-Methoxyacetoxy-1′-(2″-naphthyl))methyl]cyclodeca-3-en-1,5-diyne]
[2]; At 20 μM
  net DNA cut (%): 77.8[b] %
[3]; [5]
  IC50: 9.6 µM

## COCC(=O)OC(C1=CC#CCCCCC#C1)c1ccccc1CO[Si](C)(C)C(C)(C)C (stereo not drawn) [Compound 45, 3-[1′-(2″-(((tert-Butyldimethyl)silyloxy)methyl)phenyl)-1′-(methoxyacetoxy)methyl]cyclodeca-3en-1,5-diyne]
[2]; At 100 μM
  net DNA cut (%): 4.13[c] %
[3]; [5]
  IC50: 12 µM

## COCC(=O)OC(/C1=C/C#CCCCCC#C1)c1ccccc1CO (stereo not drawn) [Compound 48]
[3]; [5]
  IC50: 8.1 µM

## C1#CCCCCC#C/C(C2OCc3ccccc32)=C\1 (stereo not drawn) [Compound 51, 3-[2′,5′-Dihydrobenzofuran-2′-yl]cyclodeca-3-en-1,5-diyne]
[2]; FIG. 6, 100 μM, pH 8.5
  DNA cleavage activity (in words): less potent than Compound 42

## C1#CCCCCC#CC=C1 [cyclodeca-1,5-diyn-3-ene]
[4]
  half-life: 18 h
